# Measurements: ChEMBL document CHEMBL5113449, “Evaluation of aminopyrrolidine amide to improve chloride transport in CFTR-defective cells” (Bioorg Med Chem Lett, 2022)
# Calls of active or inactive are those of the source. The rule behind the calls is not given here.
# Legend:
# CFBE41o- [1] = assay: Upregulation of BiP protein expression in human CFBE41o- cells expressing CFTR P.Phe508del mutant by Western blot analysis; format: functional, cell-based
# CFBE41o- [2] = assay: Induction of UPR in human CFBE41o- cells expressing CFTR P.Phe508del mutant assessed as upregulation of PERK mRNA expression by RT-PCR analysis; format: functional, cell-based
# CFBE41o- [3] = assay: Induction of UPR in human CFBE41o- cells expressing CFTR P.Phe508del mutant assessed as upregulation of XBP1 mRNA expression by RT-PCR analysis; format: functional, cell-based
# CFBE41o- [4] = assay: Induction of UPR in human CFBE41o- cells expressing CFTR P.Phe508del mutant assessed as upregulation of IRE1 mRNA expression by RT-PCR analysis; format: functional, cell-based
# CFBE41o- [5] = assay: Upregulation of cleaved form of ATF6 protein expression in human CFBE41o- cells expressing CFTR P.Phe508del mutant by Western blot analysis; format: functional, cell-based
# CFBE41o- [6] = assay: Upregulation of ATF6 protein expression in human CFBE41o- cells expressing CFTR P.Phe508del mutant by Western blot analysis; format: functional, cell-based
# BHK = assay: Restoration of CFTR chloride channel activity in […] BHK cells expressing 3HA-epitope tagged CFTR P.Phe508del mutant assessed as increase in exportation of mutant CFTR to membrane by measuring mature CFTR by immunoblot analysis; format: functional, cell-based
# [7] = Cytotoxicity against human CFBE41o- cells expressing CFTR P.Phe508del mutant at 10 uM incubated for 48 hrs by MTT assay; format: toxicity, cell-based
# [8] = Restoration of CFTR chloride channel activity in human CFBE41o- cells expressing CFTR P.Phe508del mutant assessed as increase in channel function by measuring Cl- current at 10 uM at -80 mV holding potential incubated for 48 hrs by whole cell patch clamp assay (reference value: 32.98 +/- 14.71 pA/pF); format: functional
# CFBE41o- [9] = assay: Restoration of CFTR chloride channel activity in human CFBE41o- cells expressing CFTR P.Phe508del mutant assessed as increase in transcription of CFTR P.Phe508del mutant mRNA expression by RT-qPCR analysis; format: functional, cell-based
smiles,measurement,setting,value
CCN(CC)Cc1ccc(C(=O)N(CCc2ccccc2OC)[C@@H]2CCNC2)cc1,Activity,CFBE41o- [1],Active
same,Activity,CFBE41o- [2],Active
same,Activity,CFBE41o- [3],Active
same,Activity,CFBE41o- [4],Active
same,Activity,CFBE41o- [5],Active
same,Activity,CFBE41o- [6],Active
same,Activity,BHK,Active
same,Activity,[7],Non-Toxic
same,Activity,[8],82.67 pA/pF
same,Activity,CFBE41o- [9],Active
